{"source": "patent US11173140B2", "about": "“Dosing regimens of PKC activators” (COGNITIVE RESEARCH ENTERPRISES, INC., priority 2015, dated 2021)", "key": {"[1]": {"test_system": "BDNF", "assay": "Brain BDNF by ELISA after i.v. bryostatin dosing regimens", "format": "in vivo, mice", "settings": "for BDNF (% of Control): mouse brain, 24 h after last dose", "protocol": "FIG. 2 illustrates the increase in brain BDNF content in mice at 24 hours post intravenous administration of bryostatin. The dose of bryostatin administered is reflected by the number above each bar, while the number within each bar indicates the number of consecutive weeks mice receive a single weekly dose of bryostatin. Control mice were injected with vehicle. BDNF content for each test group was calculated as percent of the corresponding control. BDNF was measured in mouse brain by ELISA 24 h after the last dose. (Mean±SEM, n=3 except Cage 24 n=2, 2-tailed t-test).\n(§1) Mouse studies were performed using bryostatin-i in accordance with the protocol described below. The following metrics were used to evaluate dosing regimens: induction of brain postsynaptic anchoring protein PSD-95, upregulation of BDNF levels in brain, minimal downregulation of PKC-ε levels, and elevation of brain and plasma concentrations of bryostatin. Groups of 2-3 mice were formed and housed in an approved research animal facility. Water was give ad libitum. A first study involved three groups of mice with animals in each group dosed weekly for 1, 2, 3, or 6 consecutive weeks. Each group had its own control group containing the same number of mice. In this study, mice in the first, second and third groups received an intravenous (i.v.) injection of 10 μg/m^2, 15 μg/m^2, and 25 μg/m^2 dose of bryostatin respectively. For each dose, mice in that group received a single injection of bryostatin weekly for predetermined number of consecutive weeks. Following dosing, mice were sacrificed and the blood and brain of each animal was collected for further analysis.\n(§2) C57B/6 male mice weighing between 19-21 grams were obtained from Charles River and housed in cages, 1 mouse/cage in a vivarium at the Blanchette Rockefeller Neurosciences institute. Animals were allowed access to water ad libitum.\n(§3) In these studies, bryostatin was administered intravenously (i.v.) by injection into the tail vein of a mouse. Stock solutions of bryostatin were prepared in dimethyl sulfoxide (DMSO). Prior to administration to a mouse, the stock DMSO solution of bryostatin was diluted to a predetermined concentration by dilution with phosphate buffered saline/saline (PBS/saline).\nThree different dosing regimens (injection schedules) were compared. The dosing regimens tested were weekly dosing, dosing every other week (alternating weeks), and spaced or intermittent dosing.\nThe brain, whole blood, and plasma of mice in each dosing group as well as control mice was collected at 1 hour, 24 hours and 7 days after the last injection of bryostatin. PBMC's were isolated from blood and the brain, blood, plasma and PBMC's were frozen immediately using dry ice. Prior to analysis PBMC's were counted by diluting the sample (10 μl aliquot), 10-fold and the PBMC's counted using a Millipore Scepter cell counter. Every group of test animals had its own control group (N=3). Mice in the control group were injected with vehicle at a frequency similar to the dosing regimen and these animals were sacrificed and tested in parallel with mice in the test group.\nEach measurement was performed four times (X4). BDNF levels were measured using ELISA and the concentration of protein PSD-95 was measured by Western Blot. High performance liquid chromatography-mass spectral analysis was used to measure the concentration of bryostatin in blood and brain samples based on a standard curve. Total protein concentrations were measured Coomassie Plus (Bradford) Protein Assay kit.\nIn this study, mice were administered 10 μg/m^2, 15 μg/m^2, and 25 μg/m^2 dose of bryostatin as a single injection once per week for the indicated number of consecutive weeks. […]"}, "[2]": {"test_system": "PSD-95", "assay": "Brain PSD-95 by Western Blot after i.v. bryostatin dosing regimens", "format": "in vivo, mice", "settings": "for PSD-95 (% of Control): mouse brain, 1 h after last dose", "protocol": "The dose of bryostatin administered is reflected by the number above each bar, while the number within each bar indicates the number of consecutive weeks mice receive a single weekly dose of bryostatin. Control mice were injected with vehicle. PSD-95 was measured in mouse brain by Western Blot 1 h after the last dose. (Mean±SEM, n=3 except Cage 23 n=2, 2-tailed t-test).\nas §1\nCells were harvested in homogenizing buffer containing 10 mM Tris-Cl (pH 7.4), 1 mM PMSF (phenylmethylsulfonyl fluoride), 1 mM EGTA, 1 mM EDTA. 50 mM NaF, and 20 μM leupeptin and were lysed by sonication. The homogenate was centrifuged at 100,000×g for 15 min at 4° C. to obtain the cytosolic fraction (supernatant) and membrane (pellet). The pellet was resuspended in the homogenizing buffer by sonication. Protein concentration was measured using the Coomassie Plus (Bradford) Protein Assay kit (Pierce, USA). Following quantification, 20 μg of protein from each sample was subjected to SDS-PAGE analysis in 4-20% gradient Tris-Glycine gel (Invitrogen, USA). The separated protein was then transferred to nitrocellulose membrane. The membrane was blocked with BSA at room temperature for 15 min and was incubated with primary antibody over night at 4° C. After the incubation, it was washed three times with TBS-T (Tris Buffered saline-Tween 20) and further incubated with alkaline phosphatase conjugated secondary antibody (Jackson Immunoresearch Laboratories. USA) at 1:10,000 dilution for 45 min. The membrane was finally washed three times with TBS-T and developed using the 1-step NBT-BCIP substrate (Pierce, USA). Western Blot was imaged in the Image Quant RT-ECL (GE Life Sciences, Piscataway, N.J.) and densitometric quantification was performed using the IMAL software (Blanchette Rockefeller Neurosciences institute, Morgantown, W. Va.). For translocation assays, PKC activation was represented as the percentage of total protein in the membrane (membrane/cytosol+membrane).\nas §2, §3\nThree different dosing regimens (injection schedules) were compared. The dosing regimens tested were weekly dosing, dosing every other week (alternating weeks), and spaced or intermittent dosing. […]"}}}
{"molecule": "CCC/C=C/C=C/C(=O)O[C@H]1/C(=C/C(=O)OC)C[C@H]2C[C@H]([C@@H](C)O)OC(=O)C[C@H](O)C[C@@H]3C[C@H](OC(C)=O)C(C)(C)[C@](O)(C[C@@H]4C/C(=C/C(=O)OC)C[C@H](/C=C/C(C)(C)[C@]1(O)O2)O4)O3", "note": "[Bryostatin-1]", "values": [{"measurement": "brain BDNF levels", "setting": "[1]; mice, 10 μg/m^2 i.v., 3 or 6 consecutive weeks", "value": "did not result in elevated levels of brain BDNF"}, {"measurement": "brain BDNF levels", "setting": "[1]; mice, 15 μg/m^2, three consecutive weeks", "value": "some increase"}, {"measurement": "brain BDNF levels", "setting": "[1]; mice, 25 μg/m^2", "value": "maximum increase"}, {"measurement": "brain BDNF", "setting": "[1]; mice, 25 μg/m^2, 3 weekly doses, 3 weeks no dosing, 3 more weekly doses", "value": "remained elevated"}, {"measurement": "BDNF (% of Control)", "setting": "[1]; cage 4: 25 μg/m^2 i.v. once weekly, 3 weeks", "value": "192.869 % of Control"}, {"measurement": "BDNF (% of Control)", "setting": "[1]; cage 5: 25 μg/m^2 i.v., 3 on/3 off/3 on (9 weeks)", "value": "149.023 % of Control"}, {"measurement": "BDNF (% of Control)", "setting": "[1]; cage 6: 10 μg/m^2 i.v. once weekly, 3 weeks", "value": "107.047 % of Control"}, {"measurement": "BDNF (% of Control)", "setting": "[1]; cage 8: 10 μg/m^2 i.v. once weekly, 6 weeks", "value": "99.137 % of Control"}, {"measurement": "BDNF (% of Control)", "setting": "[1]; cage 18: 15 μg/m^2 i.v. once weekly, 3 weeks", "value": "110.969 % of Control"}, {"measurement": "BDNF (% of Control)", "setting": "[1]; cage 22 (regimen not listed in Tables 2/3)", "value": "133.142 % of Control"}, {"measurement": "BDNF (% of Control)", "setting": "[1]; cage 24: 25 μg/m^2 i.v. once weekly, 2 weeks", "value": "135.095 % of Control"}, {"measurement": "amounts of PSD-95", "setting": "[2]; mice, 25 μg/m^2 i.v. once per week, three weeks", "value": "higher amounts"}, {"measurement": "PSD-95 (% of Control)", "setting": "[2]; cage 7: 10 μg/m^2 i.v. once weekly, 6 weeks", "value": "108.176 % of Control"}, {"measurement": "PSD-95 (% of Control)", "setting": "[2]; cage 17: 15 μg/m^2 i.v. once weekly, 3 weeks", "value": "126.969 % of Control"}, {"measurement": "PSD-95 (% of Control)", "setting": "[2]; cage 21: 25 μg/m^2 i.v., 1 week", "value": "99.453 % of Control"}, {"measurement": "PSD-95 (% of Control)", "setting": "[2]; cage 23: 25 μg/m^2 i.v. once weekly, 2 weeks", "value": "107.570 % of Control"}, {"measurement": "PSD-95 (% of Control)", "setting": "[2]; cage 25: 25 μg/m^2 i.v. once weekly, 3 weeks", "value": "171.203 % of Control"}]}
